Assay [1] deals with Fibroblast growth factor receptor 2 (Homo sapiens) (UniProt P21802). To be noted: Compound concentration 20.0 uM.
Description: Thermal Shift Assay. Domain: start/stop: T457-E768
The target in assay [2] is T1, Peregrin (Homo sapiens) (UniProt P55201).
T1 sequence (whole entry): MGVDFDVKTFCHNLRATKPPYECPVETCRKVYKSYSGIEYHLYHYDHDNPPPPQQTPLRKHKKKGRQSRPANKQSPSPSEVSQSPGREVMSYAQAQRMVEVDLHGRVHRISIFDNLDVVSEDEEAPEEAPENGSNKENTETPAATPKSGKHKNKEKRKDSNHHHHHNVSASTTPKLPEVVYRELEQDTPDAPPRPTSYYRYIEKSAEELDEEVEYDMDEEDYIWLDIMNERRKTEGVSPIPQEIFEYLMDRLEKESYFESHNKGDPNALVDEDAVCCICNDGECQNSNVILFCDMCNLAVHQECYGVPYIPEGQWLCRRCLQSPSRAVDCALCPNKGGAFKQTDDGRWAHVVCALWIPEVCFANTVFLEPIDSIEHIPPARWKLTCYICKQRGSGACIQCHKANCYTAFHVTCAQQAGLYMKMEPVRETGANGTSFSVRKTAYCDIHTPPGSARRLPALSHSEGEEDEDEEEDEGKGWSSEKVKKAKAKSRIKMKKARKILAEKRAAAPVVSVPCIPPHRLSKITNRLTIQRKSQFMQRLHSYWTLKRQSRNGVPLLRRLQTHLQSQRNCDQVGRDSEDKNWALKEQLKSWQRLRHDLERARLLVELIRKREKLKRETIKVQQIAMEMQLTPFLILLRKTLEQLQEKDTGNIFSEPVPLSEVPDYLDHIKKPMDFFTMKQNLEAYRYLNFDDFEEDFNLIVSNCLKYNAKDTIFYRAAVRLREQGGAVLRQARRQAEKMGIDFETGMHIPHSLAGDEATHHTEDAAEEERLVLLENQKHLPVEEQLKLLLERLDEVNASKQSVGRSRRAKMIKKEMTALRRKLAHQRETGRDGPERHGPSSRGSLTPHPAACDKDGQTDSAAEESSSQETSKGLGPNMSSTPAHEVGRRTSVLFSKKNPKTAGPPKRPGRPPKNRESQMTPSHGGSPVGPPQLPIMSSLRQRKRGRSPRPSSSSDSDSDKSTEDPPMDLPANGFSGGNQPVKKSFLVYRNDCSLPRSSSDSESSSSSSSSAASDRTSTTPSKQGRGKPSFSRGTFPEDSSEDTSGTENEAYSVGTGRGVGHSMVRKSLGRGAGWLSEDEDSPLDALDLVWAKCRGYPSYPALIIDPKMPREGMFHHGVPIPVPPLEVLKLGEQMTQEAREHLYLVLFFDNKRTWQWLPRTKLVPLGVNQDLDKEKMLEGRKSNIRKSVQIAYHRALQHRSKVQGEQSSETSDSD
As to conditions: Compound concentration 20.0 uM.

Sequence of Fibroblast growth factor receptor 2 (Homo sapiens) (P21802 22-821 limits assumed): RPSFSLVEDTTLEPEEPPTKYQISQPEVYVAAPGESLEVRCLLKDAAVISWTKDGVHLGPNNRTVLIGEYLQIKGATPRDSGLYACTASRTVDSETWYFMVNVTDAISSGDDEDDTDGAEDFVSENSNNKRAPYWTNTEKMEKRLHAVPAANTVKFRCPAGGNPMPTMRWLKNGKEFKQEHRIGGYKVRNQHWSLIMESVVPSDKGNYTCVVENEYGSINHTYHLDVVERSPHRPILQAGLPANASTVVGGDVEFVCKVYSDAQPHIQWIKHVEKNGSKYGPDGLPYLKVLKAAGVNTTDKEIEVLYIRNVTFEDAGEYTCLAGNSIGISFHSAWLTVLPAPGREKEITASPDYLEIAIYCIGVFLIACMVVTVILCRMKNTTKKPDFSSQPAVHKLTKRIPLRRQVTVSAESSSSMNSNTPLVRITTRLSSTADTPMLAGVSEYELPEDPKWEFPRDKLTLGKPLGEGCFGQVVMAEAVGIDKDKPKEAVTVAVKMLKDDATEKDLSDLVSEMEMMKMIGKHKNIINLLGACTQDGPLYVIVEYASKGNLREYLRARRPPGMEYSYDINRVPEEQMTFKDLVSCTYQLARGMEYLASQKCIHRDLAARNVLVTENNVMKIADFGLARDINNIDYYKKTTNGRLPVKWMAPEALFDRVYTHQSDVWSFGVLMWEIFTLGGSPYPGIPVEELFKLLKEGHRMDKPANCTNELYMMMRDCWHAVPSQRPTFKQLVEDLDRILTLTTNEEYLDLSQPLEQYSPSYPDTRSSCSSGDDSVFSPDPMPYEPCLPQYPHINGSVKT

For the molecule `OC[C@H]1O[C@@H](c2ccc(Cl)c(Cc3ccc(OCCOC4CC4)cc3)c2)[C@H](O)[C@@H](O)[C@@H]1O`, the ΔTm was -0.3 °C in assay [1] and 0.43 °C in assay [2].

As for `Nc1cccc(Nc2ncc(-c3ccc(Cl)cc3)o2)c1`, the ΔTm in assay [1] is 2.1 °C; in assay [2], 4.7 °C.

As for `Cc1sc(C(=O)c2cncnc2N[C@@H]2C[C@H](COS(N)(=O)=O)[C@@H](O)C2)cc1[C@@H]1NCCc2ccc(Cl)cc21`, the thermal shift (ΔTm) is 0.33 °C in assay [1] and -1.17 °C in assay [2].

Take `CCN(c1cc(-c2ccc(CN3CCOCC3)cc2)cc(C(=O)NCc2c(C)cc(C)[nH]c2=O)c1C)C1CCOCC1`: the figures for the ΔTm in assay [1] and in assay [2] were 0.66 °C and -1.14 °C, respectively.

`CC(=O)N1CCc2c(c(N3CCCc4cc(-c5cnn(C)c5)c(C(F)F)cc43)nn2C2CCOCC2)C1`: the ΔTm was 0.45 °C in assay [1] and -1.44 °C in assay [2].

For the molecule `NC(=O)c1ccc(Oc2ccc(C(N)=O)cc2)cc1`, the thermal shift (ΔTm) in assay [1] is 0.24 °C; in assay [2], -2.11 °C.

For `COc1cc(C(=O)N2C[C@H](N)CC[C@@H]2C)cc2nc(-c3cc4cccnc4n3CC3CC3)n(C)c12`, the ΔTm was 0.33 °C in assay [1] and 0.21 °C in assay [2].

Consider `Cc1cc(N2C[C@@H](C)N[C@@H](C)C2)ncc1-c1ccc(-c2nc3c(ccn3C)c(=O)[nH]2)cc1`, for which the ΔTm in assay [1] turned out to be 0.8 °C; in assay [2], 2.61 °C.

Turning to `CCCSc1nc(N[C@@H]2C[C@H]2c2ccc(F)c(F)c2)c2nnn([C@@H]3C[C@H](OCCO)[C@@H](O)[C@H]3O)c2n1`, the values for the thermal shift (ΔTm) in assay [1] and in assay [2] were -0.32 °C and 0.55 °C, respectively.

For the molecule `Cc1cccc(N/N=C(\C(=O)c2cccs2)C(=O)C(F)(F)F)c1`, the shift in melting temperature (ΔTm) is -0.22 °C in assay [1] and 1.4 °C in assay [2].

Take `CC(C)[C@@H]1C(=O)N(S(C)(=O)=O)[C@@H]2CCN(C(=O)/C=C/CN3CCCCC3)[C@H]21`: the ΔTm in assay [1] is 0.49 °C; in assay [2] it was -1.67 °C.

With `Cn1c(NCCN(CCO)CCCc2ccc([N+](=O)[O-])cc2)cc(=O)n(C)c1=O`, the values for the ΔTm in assay [1] and in assay [2] were 0.47 °C and 1.28 °C, respectively.

For the molecule `CCCOc1cc(OCCCCN(C)C)cc(Oc2cc3c(cc2NS(=O)(=O)c2ccc(OC)c(OC)c2)n(C)c(=O)n3C)c1`, the ΔTm in assay [1] is 0.62 °C; in assay [2] it was 9.12 °C.

In the case of `Cc1ncsc1-c1ccc(CNC(=O)[C@@H]2C[C@@H](O)CN2C(=O)[C@@H](NC(=O)COCCOCCOCCNC(=O)C[C@@H]2N=C(c3ccc(Cl)cc3)c3c(sc(C)c3C)-n3c(C)nnc32)C(C)(C)C)cc1`, the ΔTm in assay [1] is 0.61 °C; in assay [2], -1.64 °C.

As to `NS(=O)(=O)OC[C@H]1C[C@@H](Nc2ccnc3cc(-c4cccc(SC(F)(F)F)c4)nn23)[C@H](O)[C@@H]1O`, the values for the ΔTm in assay [1] and in assay [2] were -0.4 °C and 3.28 °C, respectively.

As for `CC(=O)N1CCN([C@H]2CCC[C@@H](NC(=O)c3cc4c(F)ccc(C)c4[nH]3)C2)CC1`, the thermal shift (ΔTm) is -2.8 °C in assay [1] and -1.02 °C in assay [2].

On to `O=C(c1cc(O)c(O)c([N+](=O)[O-])c1)c1ccccc1F`, for which the ΔTm in assay [1] is -0.06 °C; in assay [2], 1.4 °C.

Turning to `COc1cc2c(cc1OC)[C@H]1C[C@@H](OC(=O)[C@@H](N)C(C)C)[C@H](CC(C)C)CN1CC2`, the ΔTm is 0.33 °C in assay [1] and -1.11 °C in assay [2].

Take `CC1(C)CC[C@]2(C(=O)O)CC[C@]3(C)C(=CC[C@@H]4[C@@]5(C)C=C(O)C(=O)C(C)(C)[C@@H]5CC[C@]43C)[C@@H]2C1`: the thermal shift (ΔTm) stood at 0 °C in assay [1] and 2.32 °C in assay [2].

Take `Cn1c(=O)c2c(nc(N3CCNCC3)n2Cc2nnc(-c3ccc(Cl)c(Cl)c3)o2)n(C)c1=O`: the ΔTm in assay [1] is 0.08 °C; in assay [2] it was -0.83 °C.

In the case of `Cc1ncc(Cl)cc1NCc1ccc(C(=O)N[C@@H](CC2CCCC2)C(=O)NC2CC2)s1`, the ΔTm was 1.09 °C in assay [1] and -0.65 °C in assay [2].

With `CCCOC(=O)N1CCN(C(=O)c2ccc3c(Cl)cc(-c4ccc(C5(N)CC5)cc4)nc3c2)C[C@H]1C`, the ΔTm was -0.58 °C in assay [1] and -1.27 °C in assay [2].

As for `O=C(C[C@@H](C(F)F)n1ccc(F)n1)N1CCC(O)(Cn2cnc3c(cnn3-c3ccc(F)cc3)c2=O)CC1`, the ΔTm in assay [1] stood at 0.2 °C; in assay [2], 0.9 °C.

For `COc1cc(-c2cn(C)c(=O)c3cnccc23)cc(OC)c1CN(C)CC(=O)NCCOCCOCCNc1cccc2c1C(=O)N(C1CCC(=O)NC1=O)C2=O` (configuration not stated), the thermal shift (ΔTm) in assay [1] is 0.52 °C; in assay [2], -0.56 °C.

As for `CC(=O)Nc1ccc(-c2cc(-c3ccccc3)nc3cc(C(=O)NCCCn4ccnc4)nn23)cc1`, the ΔTm in assay [1] is 0.21 °C; in assay [2], -0.4 °C.

With `COc1ccc(OC)c(-c2nnc3n2N=C(c2ccc(OC)c(OC)c2)CS3)c1`, the shift in melting temperature (ΔTm) came to 0.4 °C in assay [1] and 0.8 °C in assay [2].

With `CCN(CC)c1ccc(C2=NNC(=O)C[C@H]2C)cc1[N+](=O)[O-]`, the thermal shift (ΔTm) was determined as 0.2 °C in assay [1] and 1.09 °C in assay [2].

For the molecule `CCCCCCCCCCCCC/C=C/[C@@H](O)[C@H](CO)NC(=O)CCl`, the figures for the ΔTm in assay [1] and in assay [2] were 0.03 °C and 0.52 °C, respectively.

For `CS(=O)(=O)N1CCN(C(=O)c2cnc3ccc(Cl)cc3c2-c2ccc(C3(C#N)CC3)cc2)CC1`, the values for the thermal shift (ΔTm) in assay [1] and in assay [2] were 0.34 °C and 1.84 °C, respectively.

As to `O=C(Nc1cc(C(F)F)ns1)Nc1cc(F)ncc1CO`, the thermal shift (ΔTm) was -0.3 °C in assay [1] and 3.9 °C in assay [2].

For `O=C(CCCCCCNC(=O)c1cnc(N(c2ccccc2)c2ccccc2)nc1)NO`, the ΔTm in assay [1] was -0.22 °C; in assay [2], -1.39 °C.

Consider `O=S(=O)(CSc1nnc(Br)n1Cc1ccc(Br)c2ccccc12)Nc1cccnc1`, for which the ΔTm is -0.32 °C in assay [1] and 1.59 °C in assay [2].

As for `CNc1cc(-c2cccc(Cl)c2Cl)nc(N)n1`, the ΔTm in assay [1] is -0.72 °C; in assay [2], 0.7 °C.

For `COc1cc(C(=O)NCC2(N(C)C)CCCC2)cc(OC)c1OCc1ccccc1`, the results for the ΔTm in assay [1] and in assay [2] were 0.12 °C and 2.2 °C, respectively.

As for `C[C@]1(c2nc3c(C(N)=O)cccc3[nH]2)CCCN1`, the ΔTm in assay [1] is -0.4 °C; in assay [2], 1.27 °C.

On to `CNCCC(Oc1ccccc1OC)c1ccccc1` (configuration not stated), for which the figures for the ΔTm in assay [1] and in assay [2] were 0.13 °C and 1.17 °C, respectively.

For `O=C1C(P(=O)(O)O)CCCN1O` (configuration not stated), the values for the ΔTm in assay [1] and in assay [2] were 0.23 °C and -1.07 °C, respectively.

Take `Cc1[nH]c2c(N3CCCCC3)c(-c3ccccc3)nn2c(=O)c1-c1ccc(O)cc1`: the ΔTm in assay [1] is 0.5 °C; in assay [2], -0.91 °C.

Regarding `Oc1ccc(-c2c(-c3ccccc3)nn3c(C(F)(F)F)cc(C(F)(F)F)nc23)cc1`, the ΔTm is 1.15 °C in assay [1] and -1.38 °C in assay [2].

`CC(C)CCn1c(CN2CCN(C(=O)C3CC3)CC2)nc2c1c(=O)n(C)c(=O)n2C`: the ΔTm in assay [1] is -0.8 °C; in assay [2] it was 1.75 °C.

`CC(=O)N1CCC(Nc2cc(C(=O)NC[C@H](O)CN3CCc4ccccc4C3)ncn2)CC1`: the ΔTm in assay [1] is 0.28 °C; in assay [2], -1.13 °C.

Take `Cc1noc(C)c1-c1cc(Cl)c(Nc2ccccc2C(=O)O)c(Cl)c1`: the ΔTm in assay [1] is 0.17 °C; in assay [2], -0.15 °C.

`CNC(=O)N1CCc2c(c(N3CCCc4cc(-c5cnn(C)c5)c(C(F)F)cc43)nn2C2CCOCC2)C1`: the ΔTm in assay [1] was -0.44 °C; in assay [2], -0.21 °C.

Consider `COC(=O)c1ccc(CN2CCC(O)(Cn3cnc4c(-c5ccc(CN)cc5)n(C)nc4c3=O)CC2)c(Cl)c1`, for which the values for the ΔTm in assay [1] and in assay [2] were -0.37 °C and 1.55 °C, respectively.

In the case of `Nc1ccc(-c2cccs2)cc1NC(=O)c1ccc(NC=O)cc1`, the shift in melting temperature (ΔTm) in assay [1] is 0.02 °C; in assay [2], 2.98 °C.

As to `COc1cccc(Nc2c(C(N)=O)cnc3c(C)cc(S(=O)(=O)c4cccc(C(=O)N(C)C)c4)cc23)c1`, the ΔTm in assay [1] was -0.11 °C; in assay [2], -1.59 °C.

In the case of `CC(=O)N[C@@H](C)C(=O)N[C@@H](CCC(=O)O)C(=O)N[C@H](C(=O)N[C@@H](C=O)CC(=O)O)C(C)C`, the figures for the ΔTm in assay [1] and in assay [2] were 0.19 °C and -1.79 °C, respectively.

On to `O=C(N(CCc1ccccc1)C1CCCCC1)n1ncc(-c2ccc(OC(F)(F)F)cc2)n1`, for which the ΔTm in assay [1] is -0.24 °C; in assay [2], 1.62 °C.

On to `Cn1ncc2c(-c3c(-c4ccc(F)cn4)nn4c3COC(C)(C)C4)ccnc21`, for which the results for the ΔTm in assay [1] and in assay [2] were 1.01 °C and -1.06 °C, respectively.

`O=C(NO)C(c1ccc(-c2ncc(C(F)(F)F)cn2)cc1)c1ccccc1F` (configuration not stated): the shift in melting temperature (ΔTm) in assay [1] was -0.81 °C; in assay [2], -0.82 °C.

With `CC(C)(C)OC(=O)Nc1ccc(CNc2nccc(Nc3cc(C(=O)OC(C)(C)C)[nH]n3)n2)cc1`, the values for the ΔTm in assay [1] and in assay [2] were 1.22 °C and -1.32 °C, respectively.

As a reminder, the ΔTm is the change in melting temperature against a reference sample.

The values above are taken from ChEMBL document CHEMBL5724796, “Tm Shift (DSF) assay results for EUbOPEN Chemogenomics Library” (2024).
